Assay results reported in ChEMBL document CHEMBL1201862, “PubChem BioAssay data set” (2004).
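The compound was tested at five concentrations on cells cultured in 96-well plates, with a 48-hour exposure period. Abbreviation: GI50, concentration required for 50% inhibition of growth.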 The source made the active and inactive calls. No stated cut-off is given here; in the data, active = GI50 up to about 1.1 µM and inactive = higher.

Tests used:
Experiment in all cases: NCI tumour cell line growth inhibition, 48 h
[1] = system: 786-0
[2] = system: A498
[3] = system: A549
[4] = system: ACHN
[5] = system: BT-549
[6] = system: CAKI-1
[7] = system: CCRF-CEM
[8] = system: COLO 205
[9] = system: DU-145
[10] = system: HCC 2998
[11] = system: HCT-116
[12] = system: HCT-15
[13] = system: HL-60
[14] = system: HOP-62
[15] = system: HOP-92
[16] = system: HT-29
[17] = system: Hs-578T
[18] = system: IGROV-1
[19] = system: K562
[20] = system: KM12
[21] = system: LOX IMVI
[22] = system: M14
[23] = system: MCF7
[24] = system: MDA-MB-231
[25] = system: MDA-MB-435
[26] = system: MDA-N
[27] = system: MOLT-4
[28] = system: Malme-3M
[29] = system: NCI-H226
[30] = system: NCI-H23
[31] = system: NCI-H460
[32] = system: NCI-H522
[33] = system: NCI/ADR-RES
[34] = system: OVCAR-3
[35] = system: OVCAR-4
[36] = system: OVCAR-5
[37] = system: OVCAR-8
[38] = system: PC-3
[39] = system: RPMI-8226
[40] = system: RXF 393
[41] = system: SF-268
[42] = system: SF-295
[43] = system: SF-539
[44] = system: SK-MEL-28
[45] = system: SK-MEL-2
[46] = system: SK-MEL-5
[47] = system: SN12C
[48] = system: SNB-19
[49] = system: SNB-75
[50] = system: SR
[51] = system: SW-620
[52] = system: T47D
[53] = system: TK-10
[54] = system: U-251
[55] = system: UACC-257
[56] = system: UACC-62
[57] = system: UO-31

## CC(=O)OCC1OC(N2C(C)=C(C(C)=O)C(c3ccc(Cl)cc3)C(C#N)=C2S)C(OC(C)=O)C(OC(C)=O)C1OC(C)=O (configuration not stated)
[1]
  GI50: 35.6 µM (inactive)
[2]
  GI50: 38.2 µM (inactive)
[3]
  GI50: 49.9 µM (inactive)
[4]
  GI50: 77.8 µM (inactive)
[5]
  GI50: 62.4 µM (inactive)
[6]
  GI50: > 100 µM (inactive)
[7]
  GI50: 44.1 µM (inactive)
[8]
  GI50: 19.4 µM (inactive)
[9]
  GI50: 68.5 µM (inactive)
[10]
  GI50: 47.1 µM (inactive)
[11]
  GI50: 36.7 µM (inactive)
[12]
  GI50: 41.3 µM
[13]
  GI50: 37.3 µM (inactive)
[14]
  GI50: > 100 µM (inactive)
[15]
  GI50: 33.6 µM (inactive)
[16]
  GI50: 42.7 µM (inactive)
[17]
  GI50: 28.5 µM (inactive)
[18]
  GI50: 57.5 µM (inactive)
[19]
  GI50: 31.1 µM (inactive)
[20]
  GI50: 79.8 µM (inactive)
[21]
  GI50: 76.2 µM (inactive)
[22]
  GI50: 56.8 µM (inactive)
[23]
  GI50: 47 µM (inactive)
[24]
  GI50: 87.5 µM (inactive)
[25]
  GI50: 36.8 µM (inactive)
[26]
  GI50: 42.5 µM (inactive)
[27]
  GI50: 18.6 µM (inactive)
[28]
  GI50: 48.4 µM (inactive)
[29]
  GI50: 44.1 µM (inactive)
[30]
  GI50: > 10 µM (inactive)
[31]
  GI50: 45.1 µM (inactive)
[32]
  GI50: 32.4 µM (inactive)
[33]
  GI50: 8.71 µM (inactive)
[34]
  GI50: 61.4 µM (inactive)
[35]
  GI50: 51.6 µM (inactive)
[36]
  GI50: > 100 µM (inactive)
[37]
  GI50: 52.5 µM (inactive)
[38]
  GI50: 36 µM (inactive)
[39]
  GI50: 37.9 µM (inactive)
[40]
  GI50: 52.8 µM (inactive)
[41]
  GI50: 65.8 µM (inactive)
[42]
  GI50: 66.2 µM (inactive)
[43]
  GI50: 44.1 µM (inactive)
[44]
  GI50: 47.1 µM (inactive)
[45]
  GI50: 37.6 µM (inactive)
[46]
  GI50: 32.3 µM (inactive)
[47]
  GI50: 85.9 µM (inactive)
[48]
  GI50: > 100 µM (inactive)
[49]
  GI50: 27.9 µM (inactive)
[50]
  GI50: 28.2 µM (inactive)
[51]
  GI50: 5.46 µM (inactive)
[52]
  GI50: 24.5 µM (inactive)
[53]
  GI50: 76.9 µM (inactive)
[54]
  GI50: 66.5 µM (inactive)
[55]
  GI50: 48.8 µM (inactive)
[56]
  GI50: 19.9 µM (inactive)
[57]
  GI50: 36.8 µM (inactive)
